Experimental data published in patent publication US10183009B2, “Therapeutic compounds and uses thereof” (GENENTECH, INC., priority 2014, dated 2019).

How the values were obtained:
TAF1-BD2 = TAF1-BD2 (Homo sapiens (Human), UniProt P21675); assay: TAF1-BD2 TR-FRET Binding Assay; conditions: Assay: TAF-1
Description: Specifically, in a 384 well ProxiPlate TAF1-BD2 (6 nM final) was combined with biotin-ligand (50 nM final) in 50 mM HEPES (pH 7.5), 50 mM NaCl, 1 mM TCEP, 0.01% (w/v) BSA, and 0.008% (w/v) Brij-35 either in the presence of DMSO (final 0.2% DMSO) or compound dilution series in DMSO. After 10 minutes incubation at room temperature, a mixture Eu-W1024 Anti-6×His antibody (Perkin Elmer AD0110) and SureLight™ Allophycocyanin-Streptavidin (APC-SA, Perkin Elmer CR130-100) were added to a final concentrations of 0.2 nMolar antibody and 25 nMolar APC-SA, respectively. After twenty minutes of equilibration, the plates were read on an Envision instrument and IC50s calculated using a four parameter non-linear curve fit.

BRD4(BD1) = BRD4(BD1) (Homo sapiens (Human), UniProt O60885); assay: BRD4 AlphaLisa Binding Assay

Chain of TAF1-BD2 (P21675 1525-1656 limits assumed): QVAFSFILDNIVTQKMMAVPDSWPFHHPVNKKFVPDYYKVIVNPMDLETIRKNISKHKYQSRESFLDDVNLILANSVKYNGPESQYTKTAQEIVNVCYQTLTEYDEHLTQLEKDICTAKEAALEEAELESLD

Structure (SMILES)	IC50 (TAF1-BD2)	IC50 (BRD4(BD1))
C/C=C/Cn1cc(-c2ccc(C(=O)N(C)C)c(Cl)c2)c2cc[nH]c2c1=O [Example 43, 4-[6-[(E)-but-2-enyl]-7-oxo-1H-pyrrolo[2,3-c]pyridin-4-yl]-2-chloro-N,N-dimethyl-benzamide]	2 µM	–
Cc1cc2c(-c3cccc(C(=O)N(C)C)c3)cn(CCC3CC3)c(=O)c2[nH]1 [Example 85, 3-[6-(2-cyclopropylethyl)-2-methyl-7-oxo-1H-pyrrolo[2,3-c]pyridin-4-yl]-N,N-dimethyl-benzamide]	0.48 µM	–
CN(C)C(=O)c1cccc(-c2cn(CCC3CCCCC3)c(=O)c3[nH]ccc23)c1 [Example 12, 3-[6-(2-cyclohexylethyl)-7-oxo-1H-pyrrolo[2,3-c]pyridin-4-yl]-N,N-dimethyl-benzamide]	–	12 µM
C/C=C/Cn1cc(-c2ccc(CO)cc2)c2cc[nH]c2c1=O [Example 29, 6-[(E)-but-2-enyl]-4-[4-(hydroxymethyl)phenyl]-1H-pyrrolo[2,3-c]pyridin-7-one]	4.5 µM	–

More lines, in order of falling IC50 (TAF1-BD2), values ahead:

IC50 (TAF1-BD2)	IC50 (BRD4(BD1))	Structure (SMILES)
5.6 µM	–	CN(C)C(=O)c1cccc(-c2cn(CC3CC3)c(=O)c3[nH]ccc23)c1 [Example 17, 3-[6-(cyclopropylmethyl)-7-oxo-1H-pyrrolo[2,3-c]pyridin-4-yl]-N,N-dimethyl-benzamide]
5.2 µM	–	CC(C)=CCn1cc(-c2cccc(C(=O)N(C)C)c2)c2cc[nH]c2c1=O [Example 3, N,N-dimethyl-3-[6-(3-methylbut-2-enyl)-7-oxo-1H-pyrrolo[2,3-c]pyridin-4-yl]benzamide]
1.8 µM	–	C/C=C/Cn1cc(-c2cc(C(=O)N3CCC3)ccc2OC)c2cc[nH]c2c1=O [Example 71, 4-[5-(azetidine-1-carbonyl)-2-methoxy-phenyl]-6-[(E)-but-2-enyl]-1H-pyrrolo[2,3-c]pyridin-7-one]
0.64 µM	–	C/C=C/Cn1cc(-c2cccc(C(=O)NC)c2)c2cc[nH]c2c1=O [Example 25, 3-[6-[(E)-but-2-enyl]-7-oxo-1H-pyrrolo[2,3-c]pyridin-4-yl]-N-methyl-benzamide]
